pEC50, pKi: −log10 of the molar value. The source made the active and inactive calls. The rule behind the calls is not given here. Positions of bridges follow the written chain, without caps; N, C: chain ends. Non-standard residues stand in square brackets, D forms with d. Residues, ends and D or L forms follow the SMILES beside them. Tyr(3-NO2) = N[C@@H](Cc1ccc(O)c([N+](=O)[O-])c1)C(=O)O; Phe(4-tBu) = CC(C)(C)c1ccc(C[C@H](N)C(=O)O)cc1; Tyr(3-I) = N[C@@H](Cc1ccc(O)c(I)c1)C(=O)O; Oic = O=C(O)[C@@H]1C[C@@H]2CCCC[C@@H]2N1; Phe(4-NH2) = Nc1ccc(C[C@H](N)C(=O)O)cc1; Bta = N[C@@H](Cc1csc2ccccc12)C(=O)O; 2Thi = N[C@@H](Cc1cccs1)C(=O)O; Cha = N[C@@H](CC1CCCCC1)C(=O)O; NMeD = CN[C@@H](CC(=O)O)C(=O)O; pGlu = O=C1CC[C@@H](C(=O)O)N1; Pen = CC(C)(S)[C@H](N)C(=O)O; Aib = CC(C)(N)C(=O)O
Tests used:
Rattus norvegicus [1] = species: Rattus norvegicus; experiment: Agonist activity in rat aortic ring contraction assay relative to 1 uM phenylephrine; assay type: functional, Aorta
Urotensin-2 receptor = target: T1, Urotensin-2 receptor (Homo sapiens, UniProt Q9UKP6); experiment: Displacement of [125I]human urotensin-2 from human GPR14 transfected in CHO cells; assay type: cell-based; settings: for Log Ki: cho
T1 sequence (Q9UKP6 whole entry): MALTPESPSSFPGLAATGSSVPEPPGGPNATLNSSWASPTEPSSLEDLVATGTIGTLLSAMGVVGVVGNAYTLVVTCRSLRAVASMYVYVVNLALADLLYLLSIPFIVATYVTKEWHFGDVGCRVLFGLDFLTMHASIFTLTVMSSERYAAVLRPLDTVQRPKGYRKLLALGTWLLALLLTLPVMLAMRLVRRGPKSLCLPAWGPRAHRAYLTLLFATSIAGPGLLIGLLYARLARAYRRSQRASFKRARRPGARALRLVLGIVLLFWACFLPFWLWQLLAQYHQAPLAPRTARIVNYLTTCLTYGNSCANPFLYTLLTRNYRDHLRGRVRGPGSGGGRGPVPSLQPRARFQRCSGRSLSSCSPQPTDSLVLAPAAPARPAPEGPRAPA

[2] = target: T2, Urotensin-2 receptor (Rattus norvegicus) (UniProt P49684); experiment: Antagonist activity against 1 uM human urotensin-2-induced contraction of rat aortic ring; assay type: functional, tissue-based; settings: Aorta
T2 sequence (whole entry): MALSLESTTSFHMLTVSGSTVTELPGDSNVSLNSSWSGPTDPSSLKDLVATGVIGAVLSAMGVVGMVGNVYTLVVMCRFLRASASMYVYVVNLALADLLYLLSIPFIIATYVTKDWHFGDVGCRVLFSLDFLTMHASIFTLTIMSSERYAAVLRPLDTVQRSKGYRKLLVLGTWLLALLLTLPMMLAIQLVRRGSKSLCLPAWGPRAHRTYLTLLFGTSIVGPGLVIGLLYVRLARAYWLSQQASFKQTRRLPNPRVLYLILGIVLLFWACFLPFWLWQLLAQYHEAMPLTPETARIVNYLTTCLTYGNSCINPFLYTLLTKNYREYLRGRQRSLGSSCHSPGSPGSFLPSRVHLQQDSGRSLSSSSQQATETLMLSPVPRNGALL

Rattus norvegicus [3] = species: Rattus norvegicus; experiment: Agonist activity in rat aortic ring contraction assay; assay type: functional; settings: Aorta

SMILES	pKi (Urotensin-2 receptor)	Activity [2]	pEC50 (Rattus norvegicus [3])	Log Ki (Urotensin-2 receptor)	Activity (Rattus norvegicus [1]) [%]
CC(C)[C@H](NC(=O)[C@@H]1CSSC[C@H](NC(=O)[C@@H](N)CC(=O)O)C(=O)N[C@@H](Cc2ccccc2)C(=O)N[C@@H](Cc2c[nH]c3ccccc23)C(=O)N[C@@H](CCCCN)C(=O)N[C@@H](Cc2ccc(C(C)(C)C)cc2)C(=O)N1)C(=O)O (H-DCFWK[Phe(4-tBu)]CV-OH; disulfide 2-7)	8.04	inactive	7.63	–	88.5
CC(C)[C@H](NC(=O)[C@@H]1CSSC[C@H](NC(=O)[C@@H](N)CC(=O)O)C(=O)N[C@@H](CC2CCCCC2)C(=O)N[C@@H](Cc2c[nH]c3ccccc23)C(=O)N[C@@H](CCCCN)C(=O)N[C@@H](Cc2ccc(O)c(I)c2)C(=O)N1)C(=O)O (H-DC[Cha]WK[Tyr(3-I)]CV-OH; disulfide 2-7)	7.71	inactive	6.45	–	82.1
CC(C)[C@H](NC(=O)[C@@H]1CSSC[C@H](NC(=O)[C@@H](N)CC(=O)O)C(=O)N[C@@H](Cc2ccccc2)C(=O)N[C@@H](Cc2c[nH]c3ccccc23)C(=O)N[C@@H](CCCCN)C(=O)N[C@@H](Cc2ccc(N)cc2)C(=O)N1)C(=O)O (H-DCFWK[Phe(4-NH2)]CV-OH; disulfide 2-7)	8.00	inactive	6.37	–	97.7
CC(C)[C@H](NC(=O)[C@@H]1CSSC[C@H](NC(=O)[C@@H](N)CC(=O)O)C(=O)N[C@@H](Cc2csc3ccccc23)C(=O)N[C@@H](Cc2c[nH]c3ccccc23)C(=O)N[C@@H](CCCCN)C(=O)N[C@@H](Cc2ccc(O)cc2)C(=O)N1)C(=O)O (H-DC[Bta]WKYCV-OH; disulfide 2-7) [listing 1 of 2 here]	–	–	–	–	73.8
CC(C)[C@H](NC(=O)[C@@H]1CSSC[C@H](NC(=O)[C@H](C)N)C(=O)N[C@@H](CC2CCCCC2)C(=O)N[C@@H](Cc2c[nH]c3ccccc23)C(=O)N[C@@H](CCCCN)C(=O)N[C@@H](Cc2ccc(O)cc2)C(=O)N1)C(=O)O (H-AC[Cha]WKYCV-OH; disulfide 2-7)	6.58	inactive	6.03	–	36.9
CC(C)[C@H](NC(=O)[C@@H]1CSSC[C@H](NC(=O)[C@@H](N)CC(=O)O)C(=O)N[C@@H](Cc2ccccc2)C(=O)N[C@@H](Cc2c[nH]c3ccccc23)C(=O)N[C@@H](CCCCN)C(=O)N[C@@H](Cc2ccc(O)c([N+](=O)[O-])c2)C(=O)N1)C(=O)O (H-DCFWK[Tyr(3-NO2)]CV-OH; disulfide 2-7)	8.62	inactive	8.01	–	95
CC(C)[C@H](NC(=O)[C@@H]1CSSC(C)(C)[C@H](NC(=O)[C@@H](N)CC(=O)O)C(=O)N[C@@H](CC2CCCCC2)C(=O)N[C@@H](Cc2c[nH]c3ccccc23)C(=O)N[C@@H](CCCCN)C(=O)N[C@@H](Cc2ccc(O)cc2)C(=O)N1)C(=O)O (H-D[Pen][Cha]WKYCV-OH; disulfide 2-7)	6.81	inactive	5.72	–	14.8
CC(C)[C@H](NC(=O)[C@@H]1CSSC[C@H](NC(=O)[C@@H](N)CC(=O)O)C(=O)N2[C@@H](C[C@@H]3CCCC[C@@H]32)C(=O)N[C@@H](Cc2c[nH]c3ccccc23)C(=O)N[C@@H](CCCCN)C(=O)N[C@@H](Cc2ccc(O)cc2)C(=O)N1)C(=O)O (H-DC[Oic]WKYCV-OH; disulfide 2-7)	–	–	< 5.00	< -5	–
CC(C)[C@H](NC(=O)[C@@H]1CSSC[C@H](NC(=O)[C@@H](N)CC(=O)O)C(=O)N[C@@H](Cc2csc3ccccc23)C(=O)N[C@@H](Cc2c[nH]c3ccccc23)C(=O)N[C@@H](CCCCN)C(=O)N[C@@H](Cc2ccc(O)cc2)C(=O)N1)C(=O)O (H-DC[Bta]WKYCV-OH; disulfide 2-7) [listing 2 of 2 here]	–	–	6.54	-8.95	–
CC(C)[C@H](NC(=O)[C@@H]1CSSC[C@H](NC(=O)[C@@H](N)CC(=O)O)C(=O)N[C@@H](Cc2ccc(C(C)(C)C)cc2)C(=O)N[C@@H](Cc2c[nH]c3ccccc23)C(=O)N[C@@H](CCCCN)C(=O)N[C@@H](Cc2ccc(O)cc2)C(=O)N1)C(=O)O (H-DC[Phe(4-tBu)]WKYCV-OH; disulfide 2-7) [listing 2 of 2 here]	–	–	–	–	76.7
CC(C)[C@H](NC(=O)[C@@H]1CSSC[C@H](NC(=O)[C@@H](N)CC(=O)O)C(=O)N[C@@H](Cc2cccs2)C(=O)N[C@@H](Cc2c[nH]c3ccccc23)C(=O)N[C@@H](CCCCN)C(=O)N[C@@H](Cc2ccc(O)cc2)C(=O)N1)C(=O)O (H-DC[2Thi]WKYCV-OH; disulfide 2-7) [listing 2 of 2 here]	–	–	–	–	94

Now from value to molecule, other results behind:

pKi (Urotensin-2 receptor)	Activity [2]	pEC50 (Rattus norvegicus [3])	Log Ki (Urotensin-2 receptor)	SMILES	Activity (Rattus norvegicus [1]) [%]
8.65	inactive	8.25	–	CC(C)[C@H](NC(=O)[C@@H]1CSSC[C@H](NC(=O)C(C)(C)N)C(=O)N[C@@H](Cc2ccccc2)C(=O)N[C@@H](Cc2c[nH]c3ccccc23)C(=O)N[C@@H](CCCCN)C(=O)N[C@@H](Cc2ccc(O)cc2)C(=O)N1)C(=O)O (H-[Aib]CFWKYCV-OH; disulfide 2-7)	83.9
9.04	inactive	8.23	–	CC(C)[C@H](NC(=O)[C@@H]1CSSC[C@H](NC(=O)[C@@H]2CCC(=O)N2)C(=O)N[C@@H](Cc2ccccc2)C(=O)N[C@@H](Cc2c[nH]c3ccccc23)C(=O)N[C@@H](CCCCN)C(=O)N[C@@H](Cc2ccc(O)cc2)C(=O)N1)C(=O)O ([pGlu]CFWKYCV-OH; disulfide 2-7)	98.6
8.53	inactive	8.32	–	CC(C)[C@H](NC(=O)[C@@H]1CSSC[C@H](NC(=O)[C@@H](N)CCC(=O)O)C(=O)N[C@@H](Cc2ccccc2)C(=O)N[C@@H](Cc2c[nH]c3ccccc23)C(=O)N[C@@H](CCCCN)C(=O)N[C@@H](Cc2ccc(O)cc2)C(=O)N1)C(=O)O (H-ECFWKYCV-OH; disulfide 2-7)	82.1
8.91	inactive	8.30	–	CC(C)[C@H](NC(=O)[C@@H]1CSSC[C@H](NC(=O)[C@@H](N)CC(=O)O)C(=O)N[C@@H](Cc2ccccc2)C(=O)N[C@@H](Cc2c[nH]c3ccccc23)C(=O)N[C@@H](CCCCN)C(=O)N[C@@H](Cc2ccc(O)cc2)C(=O)N1)C(=O)O (H-DCFWKYCV-OH; disulfide 2-7)	102.1
8.79	inactive	8.22	–	CN[C@@H](CC(=O)O)C(=O)N[C@H]1CSSC[C@@H](C(=O)N[C@H](C(=O)O)C(C)C)NC(=O)[C@H](Cc2ccc(O)cc2)NC(=O)[C@H](CCCCN)NC(=O)[C@H](Cc2c[nH]c3ccccc23)NC(=O)[C@H](Cc2ccccc2)NC1=O (H-[NMeD]CFWKYCV-OH; disulfide 2-7)	93.1
–	–	8.05	-8.54	CC(C)[C@H](NC(=O)[C@@H]1CSSC[C@H](NC(=O)[C@@H](N)CC(=O)O)C(=O)N[C@@H](Cc2cccs2)C(=O)N[C@@H](Cc2c[nH]c3ccccc23)C(=O)N[C@@H](CCCCN)C(=O)N[C@@H](Cc2ccc(O)cc2)C(=O)N1)C(=O)O (H-DC[2Thi]WKYCV-OH; disulfide 2-7) [listing 1 of 2 here]	–
–	–	8.39	-7.63	CC(C)[C@H](NC(=O)[C@@H]1CSSC[C@H](NC(=O)[C@@H](N)CC(=O)O)C(=O)N[C@@H](Cc2ccc(C(C)(C)C)cc2)C(=O)N[C@@H](Cc2c[nH]c3ccccc23)C(=O)N[C@@H](CCCCN)C(=O)N[C@@H](Cc2ccc(O)cc2)C(=O)N1)C(=O)O (H-DC[Phe(4-tBu)]WKYCV-OH; disulfide 2-7) [listing 1 of 2 here]	–

Reference: ChEMBL document CHEMBL1137360, “Structure-activity relationships of a novel series of urotensin II analogues: identification of a urotensin II antagonist” (J Med Chem, 2006)
